From patent US20030049287A1, “Catechol oximes and their use in cosmetic and dermatological preparations” (priority 1999, published 2003)

Assay: not given
Settings: not given

With `ON=Cc1ccc(O)c(O)c1` [Example 7, 3,4-Dihydroxybenzaldehyde oxime] the melting point was 143 °C (dec.).
In the case of `ON=Cc1cc(O)c(O)c(O)c1` [Example 9, 3,4,5-Trihydroxybenzaldehyde oxime], the melting point is reported as 177 °C (dec.).
For `CCON=Cc1ccc(O)c(O)c1` [Example 10, 3,4-Dihydroxybenzaldehyde O-ethyloxime], the melting point was < 23 °C.

First: Cc1ccc(CON=Cc2ccc(O)c(O)c2)cc1 [Example 11, 3,4-Dihydroxybenzaldehyde O-(4-methylbenzyl)oxime]
Second: CCON=Cc1cc(O)c(O)c(O)c1 [Example 13, 3,4,5-Trihydroxybenzaldehyde O-ethyloxime]
The melting point of the first is higher: 85 to 86 °C for the first, 80 °C for the second.

Assay: Rancimat accelerated autoxidation of lipids by air, soybean oil
Settings: antioxidative index = IP(with test solution)/IP(control sample), soybean oil purified over alumina, 0.05% test substance
Experimental: (§1) The activity of the illustrative compounds according to Examples 7 to 13 as antioxidants was compared with the conventional antioxidants and two examples from WO 95 01,157. The test system used was the accelerated autoxidation of lipids by air with or without antioxidant using the Rancimat apparatus (Rancimat is a registered trademark of Metrohm AG, Herisau, Switzerland).
(§2) The illustrative compounds, vitamin C, α-tocopherol and dibutyihydroxytoluene were dissolved in methanol or acetone and 100 μl of each test solution were added to a prepared oil sample of 3 g. In a control sample only solvent was added. A constant stream of dry air (20 l/h) was bubbled through the heated oil sample containing the test solution, and the volatile oxidation products (predominantly short-chain fatty acids such as formic acid or acetic acid) were collected in a receiver containing water. The conductivity of this aqueous solution was measured continuously and documented. The oxidation of (unsaturated) fats proceeds here only very slowly for a period of time and then suddenly increases greatly. The time to the increase is referred to as the induction period (IP).
(§3) The antioxidative index (AOI) was obtained according to the following equation:
(§4) AOI=IP(with test solution)/IP(control sample).

Compared with `Cc1cc(C(C)(C)C)c(O)c(C(C)(C)C)c1` [Dibutylhydroxytoluene, reference compound], `CCON=Cc1cc(O)c(O)c(O)c1` [Example 13, 3,4,5-Trihydroxybenzaldehyde O-ethyloxime] is higher in “AOI in soybean oil at 100° C. with 0.05% of test substance” value (shortened to “AOI … with 0.05% of test substance”): 4.8 for the first, 17.2 for the second.

First: ON=Cc1ccc(O)c(O)c1 [Example 7, 3,4-Dihydroxybenzaldehyde oxime]
Second: CCON=Cc1ccc(O)c(O)c1 [Example 10, 3,4-Dihydroxybenzaldehyde O-ethyloxime]
The “AOI … with 0.05% of test substance” value of the first is lower: 15.8 for the first, 17.3 for the second.

First: CC(=NO)c1ccc(O)c(O)c1 [Example 8, 3,4-Dihydroxyacetophenone oxime]
Second: CCON=C(C)c1ccc(O)c(O)c1 [Example 12, 3,4-Dihydroxyacetophenone O-ethyloxime]
The “AOI … with 0.05% of test substance” value of the first is higher: 16.6 for the first, 15.2 for the second.

First: ON=Cc1cc(O)c(O)c(O)c1 [Example 9, 3,4,5-Trihydroxybenzaldehyde oxime]
Second: Cc1ccc(CON=Cc2ccc(O)c(O)c2)cc1 [Example 11, 3,4-Dihydroxybenzaldehyde O-(4-methylbenzyl)oxime]
The “AOI … with 0.05% of test substance” value of the first is higher: 20.9 for the first, 14.1 for the second.

First: O=C1O[C@H]([C@@H](O)CO)C(O)=C1O [Vitamin C, reference compound]
Second: CC(=NO)c1ccccc1O [o-Hydroxyacetophenone oxime, reference compound]
The “AOI … with 0.05% of test substance” value of the first is higher: 1.2 for the first, 0.9 for the second.

In the case of `Cc1c(C)c2c(c(C)c1O)CC[C@@](C)(CCC[C@H](C)CCC[C@H](C)CCCC(C)C)O2` [α-Tocopherol, reference compound], the “AOI … with 0.05% of test substance” value is reported as 5.1.

Assay: DPPH test, activity as free-radical scavenger
Assay type: biochemical
Settings: DPPH 100 μmol/l in methanol, absorption at 515 nm
Experimental: The activity of the illustrative compounds as in examples 7 to 13 as free-radical scavengers was compared with the conventional free-radical scavenger and two examples from WO 95 01,157. For this, the DPPH (1,1-diphenyl-2-picryl-hydrazyl) test was used to eliminate free radicals.
DPPH was dissolved in methanol to a concentration of 100 μmol/l. A series of dilutions of the illustrative compounds, vitamin C, α-tocopherol and dibutylhydroxytoluene were prepared in methanol. Methanol was used as the control. 2500 μl of the DPPH solution were mixed with 500 μl of each test solution, and the decrease in the absorption at 515 nm was read off until the decrease was less than 2% per hour. The activity of the test substances as free-radical scavengers was calculated according to the following equation:
Activity as free-radical scavenger (%)=100−(absorption of the test compounds)/(absorption of the control)×100.
The activity of the free-radical scavengers (%) in a series of dilutions of test compounds was used to calculate, for each test compound, the effective relative concentration EC50 (based on the initially present concentration of DPPH, EC=c (test compound)/c(DPPH)) of a test compound at which 50% of the DPPH free radical had been eliminated.

Compared with `Cc1cc(C(C)(C)C)c(O)c(C(C)(C)C)c1` [Dibutylhydroxytoluene, reference compound], `CCON=Cc1cc(O)c(O)c(O)c1` [Example 13, 3,4,5-Trihydroxybenzaldehyde O-ethyloxime] is lower in “EC50 (effective relative concentration, c(test compound)/c(DPPH), at which 50% of the DPPH free radical had been eliminated)” value: 0.240 mol/mol for the first, 0.132 mol/mol for the second.

Going from `ON=Cc1ccc(O)c(O)c1` [Example 7, 3,4-Dihydroxybenzaldehyde oxime] to `CCON=Cc1ccc(O)c(O)c1` [Example 10, 3,4-Dihydroxybenzaldehyde O-ethyloxime], the “EC50 (effective relative concentration, c(test compound)/c(DPPH), at which 50% of the DPPH free radical had been eliminated)” value rises from 0.053 mol/mol to 0.156 mol/mol.

Compared with `CC(=NO)c1ccc(O)c(O)c1` [Example 8, 3,4-Dihydroxyacetophenone oxime], `CCON=C(C)c1ccc(O)c(O)c1` [Example 12, 3,4-Dihydroxyacetophenone O-ethyloxime] is higher in “EC50 (effective relative concentration, c(test compound)/c(DPPH), at which 50% of the DPPH free radical had been eliminated)” value: 0.073 mol/mol for the first, 0.298 mol/mol for the second.

Compared with `ON=Cc1cc(O)c(O)c(O)c1` [Example 9, 3,4,5-Trihydroxybenzaldehyde oxime], `Cc1ccc(CON=Cc2ccc(O)c(O)c2)cc1` [Example 11, 3,4-Dihydroxybenzaldehyde O-(4-methylbenzyl)oxime] is higher in “EC50 (effective relative concentration, c(test compound)/c(DPPH), at which 50% of the DPPH free radical had been eliminated)” value: 0.090 mol/mol for the first, 0.131 mol/mol for the second.

Compared with `O=C1O[C@H]([C@@H](O)CO)C(O)=C1O` [Vitamin C, reference compound], `Cc1c(C)c2c(c(C)c1O)CC[C@@](C)(CCC[C@H](C)CCC[C@H](C)CCCC(C)C)O2` [α-Tocopherol, reference compound] is lower in “EC50 (effective relative concentration, c(test compound)/c(DPPH), at which 50% of the DPPH free radical had been eliminated)” value: 0.270 mol/mol for the first, 0.250 mol/mol for the second.

For `CC(=NO)c1ccccc1O` [o-Hydroxyacetophenone oxime, reference compound], the “EC50 (effective relative concentration, c(test compound)/c(DPPH), at which 50% of the DPPH free radical had been eliminated)” value was >3.0 mol/mol.

Assay: Rancimat accelerated autoxidation of lipids by air, squalene
Settings: antioxidative index = IP(with test solution)/IP(control sample), squalene purified over alumina, stabilized with 1 ppm α-tocopherol, 0.005% test substance
Experimental: as §1, §2, §3, §4
The results for the experiment at 80° C. in squalene that was purified over alumina grade N and stabilized with 1 ppm of α-tocopherol are shown in table 4: […]

Going from `Cc1cc(C(C)(C)C)c(O)c(C(C)(C)C)c1` [Dibutylhydroxytoluene, reference compound] to `CCON=Cc1cc(O)c(O)c(O)c1` [Example 13, 3,4,5-Trihydroxybenzaldehyde O-ethyloxime], the “AOI in squalene at 80° C. with 0.005% of test substance” value (“AOI … with 0.005% of test substance” for short) rises from 38 to 126.

Compared with `ON=Cc1ccc(O)c(O)c1` [Example 7, 3,4-Dihydroxybenzaldehyde oxime], `CCON=Cc1ccc(O)c(O)c1` [Example 10, 3,4-Dihydroxybenzaldehyde O-ethyloxime] is higher in “AOI … with 0.005% of test substance” value: 70 for the first, 85 for the second.

Compared with `CC(=NO)c1ccc(O)c(O)c1` [Example 8, 3,4-Dihydroxyacetophenone oxime], `CCON=C(C)c1ccc(O)c(O)c1` [Example 12, 3,4-Dihydroxyacetophenone O-ethyloxime] is lower in “AOI … with 0.005% of test substance” value: 95 for the first, 65 for the second.

First: ON=Cc1cc(O)c(O)c(O)c1 [Example 9, 3,4,5-Trihydroxybenzaldehyde oxime]
Second: Cc1ccc(CON=Cc2ccc(O)c(O)c2)cc1 [Example 11, 3,4-Dihydroxybenzaldehyde O-(4-methylbenzyl)oxime]
The “AOI … with 0.005% of test substance” value of the first is higher: 150 for the first, 50 for the second.

Going from `O=C1O[C@H]([C@@H](O)CO)C(O)=C1O` [Vitamin C, reference compound] to `CC(=NO)c1ccccc1O` [o-Hydroxyacetophenone oxime, reference compound], the “AOI … with 0.005% of test substance” value rises from 0.7 to 1.6.

For `Cc1c(C)c2c(c(C)c1O)CC[C@@](C)(CCC[C@H](C)CCC[C@H](C)CCCC(C)C)O2` [α-Tocopherol, reference compound], the “AOI … with 0.005% of test substance” value was 39.
